Experiment [1] deals with Wnt activity (SW480 colon carcinoma cells stably expressing the Sp5-Luc reporter gene). The experiment in a line: Wnt activity screening assay (Sp5-Luc reporter gene assay). Conditions: Homo sapiens, 36 to 48 hours. In kind it is cell-based, human. The essentials:
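EC50 values come from a variable-slope four-parameter fit of luminescence normalized to DMSO-only wells. The read-out follows 36–48 h incubation at 37 °C, 5% CO2, in DMEM containing 1% fetal bovine serum. Cells are hygromycin-selected SW480 stably expressing firefly luciferase under a Wnt-responsive Sp5 promoter (eight TCF/LEF sites).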
(A reporter such as luciferase makes a cellular process visible.)

The target of another experiment is recombinant GSK3β kinase (Homo sapiens (Human), UniProt P49841). The experiment in a line: GSK3β kinase assay (Ser/Thr 09 peptide Z-lyte, FRET).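 Further: FRET read-out as coumarin over fluorescein emission ratio, compounds incubated one hour at room temperature, IC50 from dose-response curve fit.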 The class given is biochemical.
recombinant GSK3β kinase, sequence (P49841 whole entry): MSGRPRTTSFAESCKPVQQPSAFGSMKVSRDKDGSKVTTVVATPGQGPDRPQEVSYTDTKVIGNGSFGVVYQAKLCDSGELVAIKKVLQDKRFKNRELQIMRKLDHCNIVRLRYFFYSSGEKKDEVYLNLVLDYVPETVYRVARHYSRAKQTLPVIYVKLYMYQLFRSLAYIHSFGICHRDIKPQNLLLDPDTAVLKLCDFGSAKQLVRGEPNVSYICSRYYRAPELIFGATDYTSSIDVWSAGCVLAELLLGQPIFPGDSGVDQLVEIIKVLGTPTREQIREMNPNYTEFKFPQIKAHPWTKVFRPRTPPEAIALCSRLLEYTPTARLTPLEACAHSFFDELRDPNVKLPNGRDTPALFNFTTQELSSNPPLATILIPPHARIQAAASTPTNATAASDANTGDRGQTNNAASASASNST
Experiment [2] deals with SW480 colon carcinoma cells. Kind of experiment: Cell viability assay (CellTiter-Glo). Conditions: Homo sapiens; for EC50: 96 h, four days, CellTiter-Glo. In kind it is cell-based, human. In general terms: In ATP-based viability assays light output follows the ATP content of the culture.
Experiment [3] has as its system LL29 cells (primary human fibroblasts derived from IPF patients), α-smooth muscle actin. The experiment in a line: Inhibition of fibrotic process: TGF-β1-treated primary human fibroblasts, αSMA staining.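 On all read-outs here: controls were TGF-β1-stimulated wells with DMSO vehicle as the positive reference and cells given DMSO alone as the negative reference.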 Conditions: Homo sapiens, Fibroblast; for EC50: 96 h, TGF-β1 20 ng/mL, 4 days, % cells positive for αSMA. The class given is cell-based.
Description: Representative compounds were screened using primary human fibroblasts (derived from IPF patients) treated with TGF-β1 to determine their ability to inhibit the fibrotic process.
Human Fibroblast Cell Culture:
Each compound was dissolved in DMSO as a 10 mM stock and used to prepare compound source plates. […] LL29 cells were plated at 1,500 cells/well in 70 μL/well F12 medium supplemented with 1% Fetal Bovine Serum. […] Wells treated with TGF-β1 and containing DMSO were used as positive control, and cells with only DMSO were negative control. Cells were incubated at 37° C. and 5% CO2 for 4 days. Following incubation for 4 days, SYTOX green nucleic acid stain (Life Technologies [Thermo Fisher Scientific]) was added to the wells at a final concentration of 1 μM and incubated at room temperature for 30 min. Cells were then fixed using 4% formaldehyde (Electron Microscopy Sciences), washed 3 times with PBS followed by blocking and permeabilization using 3% Bovine Serum Albumin (BSA; Sigma) and 0.3% Triton X-100 (Sigma) in PBS.
Experiment [4] relates to IL-6 in human peripheral blood mononuclear cells (huPBMCs). The experiment in a line: IL-6 inhibition in LPS-stimulated human peripheral blood mononuclear cells (HTRF). The class given is cell-based. Conditions: Homo sapiens, PBMC, LPS 50 ng/mL, 22 hours, IL-6 HTRF. Put shortly: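 Compound-treated huPBMCs (1×10e6 cells/mL, 1% FBS-RPMI) were stimulated after 2 h with LPS (50 ng/mL) for another 22 h at 37° C. An anti-IL-6 HTRF pair reported IL-6 as the 665/620 nm ratio; activity relative to DMSO, EC50 by 4-parameter Levenberg-Marquardt fitting, duplicates.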
(In general: TR-FRET usually uses a lanthanide donor and a delayed reading to cut background.)

Experiment [5] deals with recombinant DYRK1A kinase (Homo sapiens (Human), UniProt Q13627). Kind of experiment: DYRK1A kinase assay (Ser/Thr 18 peptide Z-lyte, FRET).
Where [6] appears, read: GSK3β kinase, head says EC50, method says IC50, ATP 46 μM.
The mark [7] stands for this setting: DYRK1A kinase, head says EC50, method says IC50, ATP 30 μM.

Data on eight molecules can be found in patent publication US10653688B2, “6-(6-membered heteroaryl and aryl)isoquinolin-3-yl carboxamides and preparation and use thereof” (Samumed, LLC, priority 2017, dated 2020).

Where two headings read alike, the source gives them in different places.

For the molecule `CN1CCC(n2cc(C(=O)Nc3cc4cc(-c5cnc6cc[nH]c6c5)ccc4cn3)cn2)CC1` [Compound 127, N-(6-(1H-Pyrrolo[3,2-b]pyridin-6-yl)isoquinolin-3-yl)-1-(1-methylpiperidin-4-yl)-1H-pyrazole-4-carboxamide], the EC50 in experiment [1] is 27 nM; on recombinant GSK3β kinase (setting [6]), greater than 10000 nM; in experiment [2], 74 nM; in experiment [3], 272 nM; in experiment [4], 1560 nM; in experiment [5] (setting [7]), 5 nM.

In the case of `CC(C)n1cc(C(=O)Nc2cc3cc(-c4cncc(NC5CCNCC5)n4)ccc3cn2)cn1` [Compound 138, 1-Isopropyl-N-(6-(6-(piperidin-4-ylamino)pyrazin-2-yl)isoquinolin-3-yl)-1H-pyrazole-4-carboxamide], the EC50 is 39 nM in experiment [1]; greater than 10000 nM at recombinant GSK3β kinase (setting [6]); 71 nM in experiment [2]; 78 nM in experiment [3]; 2760 nM in experiment [4]; 2 nM in experiment [5] (setting [7]).

Take `CN1CCC(Nc2cncc(-c3ccc4cnc(NC(=O)C5CCC5)cc4c3)n2)CC1` [Compound 113, N-(6-(6-((1-Methylpiperidin-4-yl)amino)pyrazin-2-yl)isoquinolin-3-yl) cyclobutanecarboxamide]: the concentration giving a half-maximal response (EC50) in experiment [1] was 247 nM; on recombinant GSK3β kinase (setting [6]), 67 nM; in experiment [2] it was 283 nM; in experiment [3], greater than 10000 nM; in experiment [4], 383 nM; in experiment [5] (setting [7]), 1 nM. Moreover, the inhibition at 10 µM in experiment [3] (read-out: percent inhibition at 10 μM (given for EC50 >10 μM), TGF-β1, αSMA, 10 μM) came to 27.3%.

On to `CC(C)N1CCC(c2nc(C(=O)Nc3cc4cc(-c5cccnc5)ccc4cn3)co2)CC1` [Compound 149, 2-(1-Isopropylpiperidin-4-yl)-N-(6-(pyridin-3-yl)isoquinolin-3-yl)oxazole-4-carboxamide], for which the EC50 was 7840 nM in experiment [1]; greater than 10000 nM at recombinant GSK3β kinase (setting [6]); greater than 10000 nM in experiment [2]; 3400 nM in experiment [3]; 3780 nM in experiment [4]; 102 nM in experiment [5] (setting [7]). Further, the inhibition at 10 µM in experiment [2] (read-out: percent inhibition at 10 μM (given for EC50 >10 μM), 10 μM) was found to be 39%.

For the molecule `CC(C)N1CCC(Nc2cncc(-c3ccc4cnc(NC(=O)C5CC(F)(F)C5)cc4c3)n2)CC1` [Compound 117, 3,3-Difluoro-N-(6-(6-((1-isopropylpiperidin-4-yl)amino)pyrazin-2-yl)isoquinolin-3-yl)cyclobutane-1-carboxamide], the EC50 in experiment [1] came to 1470 nM; at recombinant GSK3β kinase (setting [6]), 128 nM; in experiment [2] it was 1960 nM; in experiment [3], 170 nM; in experiment [4] it was 1360 nM; in experiment [5] (setting [7]), 2 nM.

For the molecule `CN1CCN(c2cc(C(=O)Nc3cc4cc(-c5cnc6cc[nH]c6c5)ccc4cn3)ccn2)CC1` [Compound 130, N-(6-(1H-Pyrrolo[3,2-b]pyridin-6-yl)isoquinolin-3-yl)-2-(4-methylpiperazin-1-yl)isonicotinamide], the EC50 was 378 nM in experiment [1]; greater than 10000 nM on recombinant GSK3β kinase (setting [6]); 501 nM in experiment [2]; 941 nM in experiment [3]; 3920 nM in experiment [4]; 4 nM in experiment [5] (setting [7]).

Regarding `CC(C)Nc1cncc(-c2ccc3cnc(NC(=O)c4cn(C5CCNCC5)nn4)cc3c2)n1` [Compound 94, N-(6-(6-(isopropylamino)pyrazin-2-yl)isoquinolin-3-yl)-1-(piperidin-4-yl)-1H-1,2,3-triazole-4-carboxamide], the EC50 in experiment [1] came out at 24 nM; at recombinant GSK3β kinase (setting [6]) it was 2670 nM; in experiment [2], 46 nM; in experiment [3] it was 103 nM; in experiment [4] it was 137 nM; in experiment [5] (setting [7]), 2 nM.

With `O=C(Nc1cc2cc(-c3cncc(N[C@H]4CCNC[C@@H]4F)n3)ccc2cn1)C1CC1` [Compound 111, N-(6-(6-(((3S,4S)-3-Fluoropiperidin-4-yl)amino)pyrazin-2-yl)isoquinolin-3-yl)cyclopropanecarboxamide], the EC50 in experiment [1] turned out to be 9 nM; on recombinant GSK3β kinase, 4 nM; in experiment [2], 18 nM; in experiment [3] it was 1520 nM; in experiment [4], 106 nM; in experiment [5] it was 1 nM.

For orientation: EC50 means the concentration that produces a half-maximal response. As usually defined, the inhibition is the change of the read-out against control, counted positive when it falls.
